Results taken from PubChem BioAssay (NCI).
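Five concentrations, 48 hours, 96-well plates. The concentration for full growth arrest is given as TGI.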 Where a SMILES comes first, the peptide text is derived from it. The star is where a group is joined. Fmoc = O=C(OCC1c2ccccc2-c2ccccc21)*; Boc = CC(C)(C)OC(=O)*

Legend:
Test in all cases: NCI tumour cell line growth inhibition, 48 h
CCRF-CEM leukemia = system: CCRF-CEM leukemia
HCC-2998 colon = system: HCC-2998 colon
HCT-116 colon = system: HCT-116 colon
HCT-15 colon = system: HCT-15 colon
HOP-92 NSCLC = system: HOP-92 NSCLC
IGROV1 ovarian = system: IGROV1 ovarian
SNB-19 CNS = system: SNB-19 CNS

SMILES	TGI (CCRF-CEM leukemia)	TGI (HCC-2998 colon)	TGI (HCT-116 colon)	TGI (HCT-15 colon)	TGI (HOP-92 NSCLC)	TGI (IGROV1 ovarian)	TGI (SNB-19 CNS)
CCOC(=O)NC(NC1=NCCS1)(C(=O)OCC)C(F)(F)F (stereo not drawn)	> 100 µM	> 100 µM	> 100 µM	> 100 µM	> 100 µM	> 100 µM	> 100 µM
CCSc1cc(=O)n(C)c(=O)n1C	> 100 µM	> 100 µM	> 100 µM	> 100 µM	> 100 µM		> 100 µM
Cn1c2ccccc2c2c(=O)[nH]c(=O)[nH]c21	> 100 µM	> 100 µM	> 100 µM	> 100 µM	> 100 µM	> 100 µM	> 100 µM
O=C(O)c1cnc2[nH]ccn2c1=O	> 100 µM	> 100 µM	> 100 µM	> 100 µM	> 100 µM	> 100 µM	> 100 µM
CCOc1ccc(/C=N/[N+](C)(C)C)cc1OCC	> 10 µM	> 10 µM	> 10 µM	> 10 µM	> 10 µM	> 10 µM	> 10 µM
COc1ccc2sc(-n3nc4ccccc4c3Nc3nc4ccc(OC)cc4s3)nc2c1	> 100 µM	5.47 µM	5.95 µM	> 72.1 µM	15.5 µM	8.47 µM	9.26 µM
CSc1c(C#N)c(N)nc2c(N=Nc3ccc(Cl)cc3)c(N)nn12	5.47 µM	14.8 µM		5.5 µM	8.64 µM	3.46 µM	40.7 µM
CCOC(=O)C(C(=S)Nc1ccccc1)c1nn2c(=O)cc(C)nc2s1 (stereo not drawn)	> 100 µM	60.6 µM	48.3 µM	85 µM	57.4 µM	> 100 µM	> 100 µM
CCN1CCN(c2nc3ccc([N+](=O)[O-])cc3nc2C(=O)c2ccccc2)CC1	8.27 µM	28.6 µM	31.2 µM	25 µM	32.7 µM	18.9 µM	71.2 µM
N#Cc1c(N)sc2c1-c1ccccc1OC2	36 µM	> 100 µM	82.8 µM	> 100 µM	> 100 µM	> 100 µM	> 100 µM
COC(=O)/C=C/c1ccc2c(c1)CC1(C2)Cc2cc3c(cc2C1=O)CCC3 (stereo not drawn)	> 100 µM	> 100 µM	> 100 µM	> 100 µM	> 100 µM	> 100 µM	> 100 µM
O=C(/C=C/c1ccc(/C=C/C(=O)c2ccc(O)cc2)cc1)c1ccc(O)cc1	> 100 µM	> 100 µM	> 100 µM	> 100 µM	> 100 µM		> 100 µM
COc1ccc(/C=C2\N=C(c3ccccc3)N(N=C3NC(=O)CC(=O)N3)C2=O)cc1	> 100 µM	> 100 µM	> 100 µM	> 100 µM	> 100 µM	> 100 µM	> 100 µM
CC(C)(C)OC(=O)NCCCCC(NC(=O)OCC1c2ccccc2-c2ccccc21)C(=O)N1CCCC1C(=O)NCC(N)=O (stereo not drawn) (Fmoc-Lys(Boc)-Pro-Gly-NH2; configuration not given here)	> 100 µM	> 100 µM	> 100 µM	30.1 µM	48.2 µM	> 100 µM	> 100 µM
Cc1cc(Cc2c(F)c(F)c(C(c3cc(C)no3)c3c(F)c(F)c(F)c(F)c3F)c(F)c2F)on1 (stereo not drawn)	> 100 µM	> 100 µM	> 100 µM	> 100 µM	> 100 µM	> 100 µM	> 100 µM
Cc1cc(NC[C@H](O)[C@H](O)[C@H](O)CO)c(Sc2cc(=O)[nH]c(=O)[nH]2)cc1C	> 62.5 µM	> 62.5 µM	> 62.5 µM	> 62.5 µM	> 62.5 µM	> 62.5 µM	> 62.5 µM
O=C1[C@@H]2[C@@H](c3ccccc3)[C@]2(Cl)C(=O)[C@H]2[C@H](c3ccccc3)[C@@]12Cl	> 100 µM	> 100 µM	> 100 µM	> 100 µM	> 100 µM	> 100 µM	> 100 µM
O=C1/C(=C/c2cccc(Br)c2)CSC/C1=C\c1cccc(Br)c1	6.45 µM	3.3 µM	4.33 µM	15.4 µM	7.43 µM	7.11 µM	10.6 µM
CC(C)(C)c1cc(C2=NN(c3ccccc3)C(c3ccccc3)C2)cc(C(C)(C)C)c1O (stereo not drawn)	> 100 µM		> 100 µM	> 100 µM	> 100 µM	> 100 µM	> 100 µM
CCCCCCOP(=O)(OCCCCCC)C(NC(=O)OCC)(C(F)(F)F)C(F)(F)F	> 100 µM		90.2 µM	> 100 µM	93.4 µM	> 100 µM	> 100 µM

SMILES	TGI (CCRF-CEM leukemia)	TGI (HCC-2998 colon)	TGI (HCT-116 colon)	TGI (HCT-15 colon)	TGI (HOP-92 NSCLC)	TGI (IGROV1 ovarian)	TGI (SNB-19 CNS)
CCn1cc(C(=O)O)c(=O)c2cc3c(cc21)S(=O)(=O)CC3	> 100 µM	> 100 µM	> 100 µM	> 100 µM	> 100 µM	> 100 µM	> 100 µM
O=C(CCCCCCC(=O)Nc1cccnc1)NO	> 100 µM	54.5 µM	> 100 µM	> 100 µM	> 100 µM	> 68.9 µM	> 100 µM
O=C(Cc1nccc2c1[nH]c1ccccc12)OC1C#CCSCC#C/C=C\1 (stereo not drawn)	> 100 µM	> 100 µM	> 100 µM	> 100 µM	> 100 µM	> 100 µM	> 100 µM
COCOc1c(C(O[Si](C)(C)C(C)(C)C)c2cnc(Sc3ccccc3)n2C)ccc(OC)c1OC (stereo not drawn)	9 µM	3.7 µM	2.95 µM	4.32 µM	6.36 µM	5.01 µM	6.27 µM
Cc1cc(C)c2c(n1)S(=O)(=O)N(CCCN1CCN(c3cccc(C(F)(F)F)c3)CC1)c1c-2nn(C)c1C	> 100 µM	> 100 µM	> 100 µM	> 100 µM	> 100 µM	> 100 µM	> 100 µM
c1csc(-c2cc(-c3cccs3)c(-c3cccs3)s2)c1	> 100 µM	> 100 µM	> 100 µM	> 100 µM	> 100 µM	> 100 µM	> 100 µM
O=C1/C(=C/c2ccccc2O)N=C(c2ccccc2)N1c1nc2ccccc2s1	> 100 µM	35.4 µM	77.5 µM	44.9 µM	> 100 µM	> 100 µM	
COC(=O)c1ccc(C)cc1/C=C1\Cc2ccc(C)cc2C1=O	> 100 µM	38.4 µM	23.2 µM	43.1 µM	35.2 µM	45.8 µM	68.7 µM
COc1ccc(/C=C2\CCC(CNc3ccc(OC)cc3)C2=O)cc1 (stereo not drawn)	29.9 µM	48.1 µM	23.2 µM	20.4 µM	42.7 µM	19.2 µM	> 59.2 µM
COC(=O)C1CCC(=O)N1C(c1ccc(OC)cc1)c1ccc(OC)cc1 (stereo not drawn)	> 100 µM	> 100 µM	> 100 µM	> 100 µM	> 100 µM	> 100 µM	> 100 µM
CC(C)C1=CCC2C(=C1)CCC1C(C)(C(=O)O)CCCC21C (stereo not drawn) (tested in a mixture with another compound)	> 100 µM	> 100 µM	> 100 µM	> 100 µM	> 100 µM	> 100 µM	
N=c1c2c(-c3ccccc3)c[nH]c2ncn1N	> 100 µM	> 100 µM	> 100 µM	> 100 µM	> 100 µM	> 100 µM	> 100 µM
CC1OC2(CC(OCc3ccccc3)C1OCc1ccccc1)OCCO2 (stereo not drawn)	> 100 µM	> 100 µM	> 100 µM	90.5 µM	> 100 µM	> 100 µM	> 100 µM
Nc1[nH]c(=S)nc2snnc12	> 100 µM	> 100 µM	> 100 µM	> 100 µM	> 100 µM	> 100 µM	> 100 µM
CCOC(=O)c1c(N2CCCC2)[nH]c(=O)c(C(c2ccco2)c2c(O)c(C(=O)OCC)c(N3CCCC3)[nH]c2=O)c1O	> 100 µM	> 100 µM	> 100 µM	> 100 µM	> 100 µM		> 100 µM
CC(=O)N(O)[C@@H]1CC[C@H](n2cnc3c(N)ncnc32)C1	> 100 µM	> 100 µM	> 100 µM	> 100 µM	> 100 µM	> 100 µM	> 100 µM
O=C1CCCC/C1=C\c1ccc(Br)cc1	94.4 µM	44.4 µM	31.6 µM		35.1 µM	38.3 µM	13.2 µM
CCCCNC(=S)Nc1nc(C(=O)NNC(=S)NC2CCCCC2)cs1	> 100 µM	> 100 µM	> 100 µM	> 100 µM	> 100 µM	> 100 µM	
O=S(=O)(O)ON=C1c2ccccc2-c2ccccc21	> 100 µM	> 100 µM	> 100 µM		> 100 µM	> 100 µM	> 100 µM
N#CCCN(CCC#N)c1ccc(/C=C2\N=C(c3ccccc3)N(NC(N)=S)C2=O)cc1	> 100 µM		> 100 µM	> 100 µM	> 100 µM	> 100 µM	> 100 µM
